Where two headings read alike, the source gives them in different places.
System: BMP signal in MDA-231-D-BREFluc/Rluc cells
Test: BMP signal inhibitory effect (AlphaScreen SureFire SMAD1 p-Ser463/465, BMP-6 stimulation)
Assay type: cell-based
Experimental: BMP Signal Inhibitory Effect
A BMP signal inhibitory activity of a compound of the present invention was evaluated according to the following method.
MDA-231-D-BREFluc/Rluc cells prepared according to the method described in Y. Katsuno et al., Oncogene, 27, 6322 (2008) were incubated at 37° C. for 2 hours together with test compounds, and BMP-6 (commercially available from R&D System, 507-BM-020) was then added thereto, and the mixture was additionally incubated at 37° C. for 30 minutes. A Lysis Buffer and Acceptor mix of AlphaScreen SureFire SMAD1 (p-Ser463/465) assay kit (commercially available from Perkin Elmer, TGRSM1S10K) were sequentially added thereto, the mixture was incubated at room temperature for 2 hours, and AlphaScreen Protein A kit (commercially available from Perkin Elmer, 6760617) was then added thereto, and standard AlphaScreen settings of Alpha Technology—compatible plate reader (commercially available from Perkin Elmer, EnSpire) was used for measurement.

[1] = BMP-6 stimulated MDA-231-D-BREFluc/Rluc cells, phospho-SMAD1 AlphaScreen, read-out: IC50

IC50 [1] [nM]	Structure (SMILES)	IC50 [nM]
14.3	CCn1cc(-c2ccnc(Nc3ccc(N4CCN(CCOC)CC4)c(C#N)c3)n2)c(-c2cccnc2)n1 [Example 83, 5-((4-(1-Ethyl-3-(pyridin-3-yl)-1H-pyrazol-4-yl)pyrimidin-2-yl)amino)-2-(4-(2-methoxyethyl)piperazin-1-yl)benzonitrile]	
19.3	CCn1cc(-c2ccnc(Nc3ccc(N4CCN(CCOC)CC4)nc3)n2)c(-c2cccnc2)n1 [Example 84, 4-(1-Ethyl-3-(pyridin-3-yl)-1H-pyrazol-4-yl)-N-(6-(4-(2-methoxyethyl)piperazin-1-yl)pyridin-3-yl)pyrimidin-2-amine]	
	CCn1cc(-c2ccnc(Nc3ccc(C4CC5CCC(C4)N5CCOC)cc3)n2)c(-c2cccnc2)n1 (stereo not drawn) [Example 85, 4-(1-Ethyl-3-(pyridin-3-yl)-1H-pyrazol-4-yl)-N-(4-(8-(2-methoxyethyl)-8-azabicyclo [3.2.1]octan-3-yl)phenyl)pyrimidin-2-amine]	7.3
	CCn1cc(-c2ccnc(Nc3ccc(N4CC5CCC(C4)N5CCOC)cc3)n2)c(-c2cccnc2)n1 [Example 86, 4-(1-Ethyl-3-(pyridin-3-yl)-1H-pyrazol-4-yl)-N-(4-(8-(2-methoxyethyl)-3,8-diazabicyclo[3.2.1]octan-3-yl)phenyl)pyrimidin-2-amine]	12.9
29.7	CCn1cc(-c2ccnc(Nc3ccc(N4CCN(CC(N)=O)CC4)cc3)n2)c(-c2cccnc2)n1 [Example 87, 2-(4-(4-((4-(1-Ethyl-3-(pyridin-3-yl)-1H-pyrazol-4-yl)pyrimidin-2-yl)amino)phenyl)piperazin-1-yl)acetamide]	
5.5	CCn1cc(-c2ccnc(Nc3ccc4c(c3)CN(CC3CCCO3)CC4)n2)c(-c2cccnc2)n1 (stereo not drawn) [Example 88, N-(4-(1-Ethyl-3-(pyridin-3-yl)-1H-pyrazol-4-yl)pyrimidin-2-yl)-2-((tetrahydrofuran-2-yl)methyl)-1,2,3,4-tetrahydroisoquinolin-7-amine]	
5.7	CCn1cc(-c2ccnc(Nc3ccc4c(c3)CCN(CC3CCCO3)C4)n2)c(-c2cccnc2)n1 (stereo not drawn) [Example 89, N-(4-(1-Ethyl-3-(pyridin-3-yl)-1H-pyrazol-4-yl)pyrimidin-2-yl)-2-((tetrahydrofuran-2-yl)methyl)-1,2,3,4-tetrahydroisoquinolin-6-amine]	
21.6	CCn1cc(-c2ccnc(Nc3ccc4c(c3)CCN(CC(N)=O)C4)n2)c(-c2cccnc2)n1 [Example 90, 2-(6-((4-(1-Ethyl-3-(pyridin-3-yl)-1H-pyrazol-4-yl)pyrimidin-2-yl)amino)-3,4-dihydroisoquinolin-2(1H)-yl)acetamide]	
21.3	CCn1cc(-c2ccnc(Nc3ccc4c(c3)OCCN(CCOC)C4)n2)c(-c2cccnc2)n1 [Example 91, N-(4-(l-Ethyl-3-(pyridin-3-yl)-1H-pyrazol-4-yl)pyrimidin-2-yl)-4-(2-methoxyethyl)-2,3,4,5-tetrahydrobenzo[f][1,4] oxazepin-8-amine]	
11.9	CCn1cc(-c2ccnc(Nc3ccc(OC4CN(CCOC)C4)cc3)n2)c(-c2cccnc2)n1 [Example 92, 4-(1-Ethyl-3-(pyridin-3-yl)-1H-pyrazol-4-yl)-N-(4-((1-(2-methoxyethyl)azetidin-3-yl)oxy)phenyl) pyrimidin-2-amine]	
3.8	CCn1cc(-c2ccnc(Nc3ccc4c(c3)CCN(CCOC)CC4)n2)c(-c2cccnc2)n1 [Example 93, N-(4-(1-Ethyl-3-(pyridin-3-yl)-1H-pyrazol-4-yl)pyrimidin-2-yl)-3-(2-methoxyethyl)-2,3,4,5-tetrahydro-1H-benzo [d] azepin-7-amine]	
24.3	CCn1cc(-c2ccnc(Nc3ccc(N4CCCN(CCOC)CC4)cc3)n2)c(-c2cccnc2)n1 [Example 94, 4-(1-Ethyl-3-(pyridin-3-yl)-1H-pyrazol-4-yl)-N-(4-(4-(2-methoxyethyl)-1,4-diazepan-1-yl)phenyl)pyrimidin-2-amine]	
14.8	CCn1cc(-c2ccnc(Nc3ccc4c(c3)CCN(C3COC3)C4)n2)c(-c2cccnc2)n1 [Example 95, N-(4-(1-Ethyl-3-(pyridin-3-yl)-1H-pyrazol-4-yl)pyrimidin-2-yl)-2-(oxetan-3-yl)-1,2,3,4-tetrahydroisoquinolin-6-amine]	
20.9	CCn1cc(-c2ccnc(Nc3ccc(N4CCN(CC5CC(C)(C)O5)CC4)cc3)n2)c(-c2cccnc2)n1 (stereo not drawn) [Example 96, N-(4-(4-((4,4-dimethyloxetan-2-yl)methyl)piperazin-1-yl)phenyl)-4-(1-ethyl-3-(pyridin-3-yl)-1H-pyrazol-4-yl)pyrimidin-2-amine]	
15.2	CCn1cc(-c2ccnc(Nc3ccc(N4CCN(CC5CCOC5)CC4)cc3)n2)c(-c2cccnc2)n1 (stereo not drawn) [Example 97, 4-(1-Ethyl-3-(pyridin-3-yl)-1H-pyrazol-4-yl)-N-(4-(4-((tetrahydrofuran-3-yl)methyl)piperazin-1-yl)phenyl)pyrimidin-2-amine]	
23.4	CCn1cc(-c2ccnc(Nc3ccc(N4CCN(CC5(C)COC5)CC4)cc3)n2)c(-c2cccnc2)n1 [Example 98, 4-(1-ethyl-3-(pyridin-3-yl)-1H-pyrazol-4-yl)-N-(4-(4-((3-methyloxetan-3-yl)methyl)piperazin-1-yl)phenyl)pyrimidin-2-amine]	
20	CCn1cc(-c2ccnc(Nc3ccc(N4CCN(CC5COC5)CC4)cc3)n2)c(-c2cccnc2)n1 [Example 99, 4-(1-Ethyl-3-(pyridin-3-yl)-1H-pyrazol-4-yl)-N-(4-(4-(oxetan-3-ylmethyl)piperazin-1-yl)phenyl)pyrimidin-2-amine]	
18.6	CCn1cc(-c2ccnc(Nc3ccc(C4CCCN(CCOC)C4)cc3)n2)c(-c2cccnc2)n1 (stereo not drawn) [Example 100, 4-(1-Ethyl-3-(pyridin-3-yl)-1H-pyrazol-4-yl)-N-(4-(1-(2-methoxyethyl)piperidin-3-yl)phenyl)pyrimidin-2-amine]	
50.4	COCCN1CCN(c2ccc(Nc3nccc(-c4cn(CC5COC5)nc4-c4cccnc4)n3)cc2)CC1 [Example 102, N-(4-(4-(2-Methoxyethyl)piperazin-1-yl)phenyl)-4-(1-(oxetan-3-ylmethyl)-3-(pyridin-3-yl)-1H-pyrazol-4-yl)pyrimidin-2-amine]	
10.4	c1cncc(-c2nn(C3COC3)cc2-c2ccnc(Nc3ccc(N4CCN(CC5CC5)CC4)cc3)n2)c1 [Example 103, N-(4-(4-(Cyclopropylmethyl)piperazin-1-yl)phenyl)-4-(1-(oxetan-3-yl)-3-(pyridin-3-yl)-1H-pyrazol-4-yl)pyrimidin-2-amine]	
33.7	CCn1cc(-c2ccnc(Nc3ccc(N4CCN(CC(O)COC)CC4)cc3)n2)c(-c2cccnc2)n1 (stereo not drawn) [Example 105, 1-(4-(4-((4-(1-Ethyl-3-(pyridin-3-yl)-1H-pyrazol-4-yl)pyrimidin-2-yl)amino)phenyl)piperazin-1-yl)-3-methoxypropan-2-ol]	
3.5	CCn1cc(-c2ccnc(Nc3ccc4c(c3)CN(CC(C)(C)O)CC4)n2)c(-c2cccnc2)n1 [Example 106, 1-(7-((4-(1-Ethyl-3-(pyridin-3-yl)-1H-pyrazol-4-yl)pyrimidin-2-yl)amino)-3,4-dihydroisoquinolin-2(1H)-yl)-2-methylpropan-2-ol]	
24.4	COCCn1cc(-c2ccnc(Nc3ccc(OC4CN(CC(C)(C)O)C4)cc3)n2)c(-c2cccnc2)n1 [Example 107, 1-(3-(4-((4-(1-(2-Methoxyethyl)-3-(pyridin-3-yl)-1H-pyrazol-4-yl)pyrimidin-2-yl)amino)phenoxy)azetidin-1-yl)-2-methylpropan-2-ol]	
13.3	CCn1cc(-c2ccnc(Nc3ccc(OC4CN(CC(C)(C)O)C4)cc3)n2)c(-c2cccnc2)n1 [Example 108, 1-(3-(4-((4-(1-Ethyl-3-(pyridin-3-yl)-1H-pyrazol-4-yl)pyrimidin-2-yl)amino)phenoxy)azetidin-1-yl)-2-methylpropan-2-ol]	
5.7	CCn1cc(-c2ccnc(Nc3ccc4c(c3)CCN(CC(O)COC)C4)n2)c(-c2cccnc2)n1 (stereo not drawn) [Example 109, 1-(6-((4-(1-Ethyl-3-(pyridin-3-yl)-1H-pyrazol-4-yl)pyrimidin-2-yl)amino)-3,4-dihydroisoquinolin-2 (1H)-yl)-3-methoxypropan-2-ol]	
32.8	COCC(O)CN1CCN(c2ccc(Nc3nccc(-c4cn(C5COC5)nc4-c4cccnc4)n3)cc2)CC1 (stereo not drawn) [Example 110, 1-Methoxy-3-(4-(4-((4-(1-(oxetan-3-yl)-3-(pyridin-3-yl)-1H-pyrazol-4-yl)pyrimidin-2-yl)amino)phenyl)piperazin-1-yl)propan-2-ol]	
27.3	COCC(O)CN1CCN(c2ccc(Nc3nccc(-c4cn(CC(C)(C)O)nc4-c4cccnc4)n3)cc2)CC1 (stereo not drawn) [Example 111, 1-(4-(2-((4-(4-(2-Hydroxy-3-methoxypropyl)piperazin-1-yl)phenyl)amino)pyrimidin-4-yl)-3-(pyridin-3-yl)-1H-pyrazol-1-yl)-2-methylpropan-2-ol]	
11.7	CCn1cc(-c2ccnc(Nc3ccc(CCN4CCN(C)CC4)cc3)n2)c(-c2cccnc2)n1 [Example 112, 4-(1-ethyl-3-(pyridin-3-yl)-1H-pyrazol-4-yl)-N-(4-(2-(4-methylpiperazin-1-yl)ethyl)phenyl)pyrimidin-2-amine]	
8	CCn1cc(-c2ccnc(Nc3ccc(C4CCCN(C)C4)cc3)n2)c(-c2cccnc2)n1 (stereo not drawn) [Example 113, 4-(1-Ethyl-3-(pyridin-3-yl)-1H-pyrazol-4-yl)-N-(4-(1-methylpiperidin-3-yl)phenyl)pyrimidin-2-amine]	
0.9	CCn1cc(-c2ccnc(Nc3cccc(C4CCN(C)CC4)c3)n2)c(-c2cccnc2)n1 [Example 114, 4-(1-Ethyl-3-(pyridin-3-yl)-1H-pyrazol-4-yl)-N-(3-(1-methylpiperidin-4-yl)phenyl)pyrimidin-2-amine]	

— patent US10954216B2, “BMP-signal-inhibiting compound” (RIKEN, priority 2016, dated 2021)
